Values after ≈ are worked out from the molar mass of the structure shown. Where two headings read alike, the source gives them in different places.
Key:
[1] = test system: E. coli (ATCC 25922); assay: microbe, parasite or virus in culture; conditions: Escherichia coli
[2] = test system: E. coli (ATCC 25922); conditions: for MIC of Compound (μg/ml) in the presence of PMBN (128 μg/ml): Table 1, (b) No effect; for MIC of Compound (μg/ml) in the presence of PMBN (32 μg/ml): Table 12, (b) No significant effect
[3] = test system: S. aureus (ATCC 29213); assay: Antibacterial activity (MIC), Gram-positive type strain; type: cell-based, Staphylococcus aureus; conditions: Staphylococcus aureus, ATCC29213; Table 13
[4] = test system: E. faecalis (ATCC 29212); assay: as above; type: cell-based, Enteroccocus faecalis; conditions: Enterococcus faecalis, ATCC29212; Table 13
[5] = test system: H. influenzae (ATCC 49247); assay: Antibacterial activity (MIC), Gram-negative type strain; type: cell-based, Haemophilus influenzae; conditions: Haemophilus influenzae, ATCC49247; Table 13
[6] = test system: N. gonorrheae (ATCC 49226); assay: as above; type: cell-based, Neisseria gonorrhoeae; conditions: Neisseria gonorrhoeae, ATCC49226; Table 13
[7] = ATCC25922, read-out: MIC Compound alone, Table 1
[8] = ATCC25922, read-out: MIC Compound alone, Table 12
[9] = ATCC25922, read-out: MIC Compound alone

| MIC [1, 7] | MIC of Compound (μg/ml) in the presence of PMBN (128 μg/ml) [2] | MIC [3] | MIC [4] | MIC [5] | MIC [6] | MIC of Compound (μg/ml) in the presence of PMBN (32 μg/ml) [2] | Structure (SMILES) | other results |
| --- | --- | --- | --- | --- | --- | --- | --- | --- |
| 8 µg/mL (≈ 23.6 µM) | 0.5 µg/mL |  |  |  |  |  | CCNC(=O)Nc1nc2cc(-c3cccnc3)cc(C(=O)OC)c2[nH]1 [Compound A-22, Methyl 2-(ethylcarbamoylamino)-6-(3-pyridyl)-3H-benzimidazole-4-carboxylate, reference compound] |  |
| 1 µg/mL (≈ 2.55 µM) | 0.06 µg/mL |  |  |  |  |  | CNc1cc(F)cc2c1[nH]c1nc(Oc3ccc(C)nc3)nc(N3CCCC3)c12 [Compound A-23, 6-Fluoro-N-methyl-2-[(6-methyl-3-pyridyl)oxy]-4-pyrrolidin-1-yl-9H-pyrimido[4,5-b]indol-8-amine, reference compound] |  |
|  |  | 0.06 µg/mL (≈ 0.118 µM) | 0.03 µg/mL (≈ 0.0589 µM) | 0.5 µg/mL (≈ 0.981 µM) | 0.12 µg/mL (≈ 0.235 µM) |  | CCNC(=O)Nc1nc2cc(-c3cnc(N4CCCCS4(=O)=O)nc3)cc(-c3ccccn3)c2s1 [Compound A-24, 1-(5-(2-(1,1-dioxido-1,2-thiazinan-2-yl)pyrimidin-5-yl)-7-(pyridin-2-yl)benzo[d]thiazol-2-yl)-3-ethyl-urea] |  |
|  |  | 0.06 µg/mL (≈ 0.121 µM) | 0.06 µg/mL (≈ 0.121 µM) | 1 µg/mL (≈ 2.02 µM) | 0.5 µg/mL (≈ 1.01 µM) |  | CCNC(=O)Nc1nc2cc(-c3ccc(N4CCCS4(=O)=O)nc3)cc(-c3ccccn3)c2s1 [Compound A-25, 1-[5-[6-(1,1-dioxo-1,2-thiazolidin-2-yl)-3-pyridyl]-7-(2-pyridyl)-1,3-benzothiazol-2-yl]-3-ethylurea] |  |
|  |  | 0.06 µg/mL (≈ 0.121 µM) | 0.06 µg/mL (≈ 0.121 µM) | 0.5 µg/mL (≈ 1.01 µM) | 0.25 µg/mL (≈ 0.504 µM) |  | CCNC(=O)Nc1nc2cc(-c3cnc(N4CCCS4(=O)=O)nc3)cc(-c3ccccn3)c2s1 [Compound A-26, 1-(5-(2-(1,1-dioxidoisothiazolidin-2-yl)pyrimidin-5-yl)-7-(pyridin-2-yl)benzo[d]thiazol-2-yl)-3-ethylurea] |  |
|  |  | 0.03 µg/mL (≈ 0.0589 µM) | 0.015 µg/mL (≈ 0.0294 µM) | 0.12 µg/mL (≈ 0.235 µM) | 0.03 µg/mL (≈ 0.0589 µM) |  | CCNC(=O)Nc1nc2cc(-c3cnc(N4CCCS4(=O)=O)nc3)cc(-c3ccc(C)cn3)c2s1 [Compound A-28, 1-(5-(2-(1,1-dioxidoisothiazolidin-2-yl)pyrimidin-5-yl)-7-(5-methylpyridin-2-yl)benzo[d]thiazol-2-yl)-3-ethylurea] |  |
|  |  | 0.06 µg/mL (≈ 0.124 µM) | ≤ 0.008 µg/mL | 0.008 µg/mL (≈ 0.0165 µM) | ≤ 0.008 µg/mL |  | CCNC(=O)Nc1nc2cc(-c3cnc(NS(C)(=O)=O)nc3)cc(-c3ccc(C)cn3)c2s1 [Compound A-30, N-(5-(2-(3-ethylureido)-7-(5-methylpyridin-2-yl)benzo[d]thiazol-5-yl)pyrimidin-2-yl)methanesulfonamide] |  |
|  |  | 2 µg/mL (≈ 4.26 µM) | 0.03 µg/mL (≈ 0.0639 µM) | 0.015 µg/mL (≈ 0.0319 µM) | 0.03 µg/mL (≈ 0.0639 µM) |  | CCNC(=O)Nc1nc2cc(-c3cnc(NS(C)(=O)=O)nc3)cc(-c3ccccn3)c2s1 [Compound A-31, N-(5-(2-(3-ethylureido)-7-(pyridin-2-yl)benzo[d]thiazol-5-yl)pyrimidin-2-yl)methanesulfonamide] |  |
|  |  | 0.12 µg/mL (≈ 0.241 µM) | 0.015 µg/mL (≈ 0.0301 µM) | 0.015 µg/mL (≈ 0.0301 µM) | 0.03 µg/mL (≈ 0.0602 µM) |  | CCNC(=O)Nc1nc2cc(-c3cnc(NS(=O)(=O)N(C)C)nc3)cc(-c3ccccn3)c2s1 [Compound A-32, 1-[5-[2-(dimethylsulfamoylamino)pyrimidin-5-yl]-7-(2-pyridyl)-1,3-benzothiazol-2-yl]-3-ethyl urea] |  |
|  |  | 0.25 µg/mL (≈ 0.502 µM) | 0.03 µg/mL (≈ 0.0603 µM) | 0.12 µg/mL (≈ 0.241 µM) | 0.03 µg/mL (≈ 0.0603 µM) |  | CCCS(=O)(=O)Nc1ncc(-c2cc(-c3ccccn3)c3sc(NC(=O)NCC)nc3c2)cn1 [Compound A-33, N-(5-(2-(3-ethylureido)-7-(pyridin-2-yl)benzo[d]thiazol-5-yl)pyrimidin-2-yl)propane-1-sulfonamide] |  |
|  |  | 0.25 µg/mL (≈ 0.504 µM) | 0.015 µg/mL (≈ 0.0303 µM) | 0.12 µg/mL (≈ 0.242 µM) | 0.015 µg/mL (≈ 0.0303 µM) |  | CCNC(=O)Nc1nc2cc(-c3cnc(NS(=O)(=O)C4CC4)nc3)cc(-c3ccccn3)c2s1 [Compound A-34, N-(5-(2-(3-ethylureido)-7-(pyridin-2-yl)benzo[d]thiazol-5-yl)pyrimidin-2-yl)cyclopropanesulfonamide] |  |
|  |  | ≤ 0.008 µg/mL | ≤ 0.008 µg/mL | 0.03 µg/mL (≈ 0.0573 µM) | ≤ 0.008 µg/mL |  | CCNC(=O)Nc1nc2cc(-c3cnc(NS(=O)(=O)C4CCCC4)nc3)cc(-c3ccccn3)c2s1 [Compound A-35, N-(5-(2-(3-ethylureido)-7-(pyridin-2-yl)benzo[d]thiazol-5-yl)pyrimidin-2-yl)cyclopentanesulfonamide] |  |
|  |  | 0.25 µg/mL (≈ 0.517 µM) | ≤ 0.008 µg/mL | 0.03 µg/mL (≈ 0.062 µM) | ≤ 0.008 µg/mL |  | CCNC(=O)Nc1nc2cc(-c3cnc(NS(=O)(=O)CC)nc3)cc(-c3ccccn3)c2s1 [Compound A-36, N-(5-(2-(3-ethylureido)-7-(pyridin-2-yl)benzo[d]thiazol-5-yl)pyrimidin-2-yl)ethanesulfonamide] |  |
|  |  | 0.25 µg/mL (≈ 0.501 µM) | 0.015 µg/mL (≈ 0.0301 µM) | 0.12 µg/mL (≈ 0.241 µM) | 0.03 µg/mL (≈ 0.0602 µM) |  | CCNC(=O)Nc1nc2cc(-c3cnc(NS(=O)(=O)NCC)nc3)cc(-c3ccccn3)c2s1 [Compound A-37, 1-ethyl-3-[5-[2-(ethylsulfamoylamino)pyrimidin-5-yl]-7-(2-pyridyl)-1,3-benzothiazol-2-yl]urea] |  |
| > 64 µg/mL | 2 µg/mL |  |  |  |  |  | CCNC(=O)Nc1nc2c(-c3ccc(C)cn3)cc(-c3cnc(NS(=O)(=O)C(C)(C)C)nc3)cn2n1 [Compound A-101, 1-[6-[2-(tert-butylsulfonylamino)pyrimidin-5-yl]-8-(5-methyl-2-pyridyl)-[1,2,4]triazolo[1,5-a]pyridin-2-yl]-3-ethyl-urea] |  |
| > 64 µg/mL | 2 µg/mL |  |  |  |  |  | CC(C)(C)S(=O)(=O)Nc1ncc(-c2cc(Br)c3sc(N)nc3c2)cn1 [Compound A-102, N-[5-(2-amino-7-bromo-1,3-benzothiazol-5-yl)pyrimidin-2-yl]-2-methyl-propane-2-sulfonamide] |  |

Second part, the compound before the results:

| Structure (SMILES) | MIC [1, 7] | MIC of Compound (μg/ml) in the presence of PMBN (128 μg/ml) [2] | MIC [3] | MIC [4] | MIC [5] | MIC [6] | MIC of Compound (μg/ml) in the presence of PMBN (32 μg/ml) [2] | other results |
| --- | --- | --- | --- | --- | --- | --- | --- | --- |
| CCn1cc(C(=O)O)c(=O)c2cc(F)c(N3CCNCC3)nc21 [Enoxacin, reference compound] |  |  |  |  |  |  | 0.03^(b) μg/ml | MIC [1, 8]: 0.06 µg/mL (≈ 0.187 µM) |
| CCNC(=O)Nc1nc2cc(-c3cnc(N4CCC(C)(C(=O)O)CC4)nc3)cc(-c3ccccn3)c2s1 [Example 1 (WO2012/045124), 1-[5-[2-(ethylcarbamoylamino)-7-(2-pyridyl)-1,3-benzothiazol-5-yl]pyrimidin-2-yl]-4-methyl-piperidine-4-carboxylic acid] | > 64 µg/mL | 0.5 µg/mL |  |  |  |  |  |  |
| CCNC(=O)Nc1nc2cc(-c3cccnc3)ccc2s1 [Example 1 Compound VI(a) (WO2009/074812), 1-ethyl-3-(5-pyridin-3-yl-benzothiazol-2-yl)-urea] | > 64 µg/mL | 8 µg/mL |  |  |  |  |  |  |
| CCNC(=O)Nc1nc2cc(-c3cnc(C(C)(C)O)nc3)cc(-c3cc(CN4CCOCC4)ccn3)c2s1 [Example 28 (WO2013/138860), 1-ethyl-3-[5-[2-(1-hydroxy-1-methyl-ethyl)pyrimidin-5-yl]-7-[4-(morpholinomethyl)-2-pyridyl]-1,3-benzothiazol-2-yl]urea] | > 64 µg/mL | 0.5 µg/mL |  |  |  |  |  |  |
| CCNC(=O)Nc1nc2cc(-c3cccnc3)cc(-c3ncccc3N)c2s1 [Example 94 (WO2007/148093)] | > 64 µg/mL | 32 µg/mL |  |  |  |  |  |  |
| CCNC(=O)Nc1nc2cc(-c3cccnc3)cc(-c3ccccn3)c2s1 [Example 163 (WO2007/148093)] | > 64 µg/mL | 0.25 µg/mL |  |  |  |  |  |  |
| C[C@@H](O)[C@H]1C(=O)N2C(C(=O)O)=C(SCCN=CN)C[C@H]12 [Imipenem, reference compound] |  |  |  |  |  |  | 0.5^(b) μg/ml | MIC [1, 8]: 0.5 µg/mL (≈ 1.67 µM) |
| NC[C@H]1O[C@H](O[C@H]2[C@H](O)[C@@H](O[C@H]3O[C@H](CO)[C@@H](O)[C@H](N)[C@H]3O)[C@H](N)C[C@@H]2N)[C@H](O)[C@@H](O)[C@@H]1O [Kanamycin, reference compound] |  |  |  |  |  |  | 4^(b) μg/ml | MIC [1, 8]: 8 µg/mL (≈ 16.5 µM) |
| C[C@H]1COc2c(N3CCN(C)CC3)c(F)cc3c(=O)c(C(=O)O)cn1c23 [Levofloxacin, reference compound] |  |  |  |  |  |  | 0.008^(b) μg/ml | MIC [1, 8]: 0.008 µg/mL (≈ 0.0221 µM) |
| C[C@@H](O)[C@H]1C(=O)N2C(C(=O)O)=C(S[C@@H]3CN[C@H](C(=O)N(C)C)C3)[C@H](C)[C@H]12 [Meropenem, reference compound] |  |  |  |  |  |  | 0.5^(b) μg/ml | MIC [1, 8]: 0.5 µg/mL (≈ 1.3 µM) |
| CC1COc2c(N3CCN(C)CC3)c(F)cc3c(=O)c(C(=O)O)cn1c23 (stereo not drawn) [Ofloxacin, reference compound] | 0.03 µg/mL (≈ 0.083 µM) | 0.03^(b) μg/ml |  |  |  |  | 0.03^(b) μg/ml | MIC [1, 8]: 0.03 µg/mL (≈ 0.083 µM); effect of the presence of PMBN on activity compared to compound alone ([2]; Table 1 experiment): no effect |
| CCN1CCN(C(=O)N[C@@H](C(=O)N[C@@H]2C(=O)N3[C@@H]2SC(C)(C)[C@@H]3C(=O)O)c2ccccc2)C(=O)C1=O [Piperacillin, reference compound] |  |  |  |  |  |  | 0.25 µg/mL | MIC [1, 9]: 2 µg/mL (≈ 3.86 µM) |
| CN(C)[C@@H]1C(O)=C(C(N)=O)C(=O)[C@@]2(O)C(O)=C3C(=O)c4c(O)cccc4[C@@](C)(O)[C@H]3C[C@@H]12 [Tetracycline, reference compound] |  |  |  |  |  |  | 1^(b) μg/ml | MIC [1, 9]: 1 µg/mL (≈ 2.25 µM) |
| COc1cc(Cc2cnc(N)nc2N)cc(OC)c1OC [Trimethoprim, reference compound] |  |  |  |  |  |  | 2^(b) μg/ml | MIC [1, 8]: 0.5 µg/mL (≈ 1.72 µM) |

Source: patent US20170007615A1, “Antibacterial Compounds” (priority 2014, published 2017)
